Publication doi:10.1101/2025.03.31.646301v1, “Discovery of Tankyrase scaffolding inhibitor specifically targeting the ARC4 peptide binding domain” (biorxiv, 2025)
Like-named read-outs stand apart in the source and are kept apart here.

Assays:
TNKS2 ARC4 [1] = biological target: T1, TNKS2 ARC4 (Homo sapiens, UniProt Q9H2K2); assay: FRET displacement of YFP-REAGDGEE peptide from CFP-ARC; format: binding
T1 construct: ankyrin repeat cluster 4 domain; FRET: 6xHis-mCerulean (CFP) fusion; DSF, NMR, crystal: MBP and His tag cleaved by TEV, residues 487-649 printed for crystal; E. coli BL21(DE3)
T1 sequence (Q9H2K2 487-649): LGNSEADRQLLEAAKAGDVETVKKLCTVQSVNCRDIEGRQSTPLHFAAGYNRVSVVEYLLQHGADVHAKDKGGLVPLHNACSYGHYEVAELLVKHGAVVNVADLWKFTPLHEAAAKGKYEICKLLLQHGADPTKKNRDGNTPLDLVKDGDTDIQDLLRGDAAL

TNKS2 ARC4 [2] = biological target: T1, TNKS2 ARC4; set-up: DSF thermal shift of TNKS2 ARC4, stabilization over DMSO control; conditions: binder
Source text: Given the notable stabilization of the pyrrolone-based compounds from the Commercials Diversity collection, we decided to focus on their common scaffold for compound optimization. Pyrrolone is indeed a versatile moiety that is largely employed for the design of compounds with a variety of biological effects.[55] The nine primary hits were acquired from commercial suppliers, they underwent quality control, additional DSF validation and determination of potency through FRET-based IC50 measurements (Table 1). All the tested compounds include a benzodioxane moiety (R[1]), a [compound left out] group with substitutions in the para position (R[2]), and an R[3] group with an aliphatic character and a tertiary amine. […] In addition, all molecules, except for 7, have IC50 values below 100 µM. Among the nine molecules, 1 performed the best in terms of stabilization of TNKS2 ARC4 and potency. […] In the same position, the presence of a hydrophobic methyl group (3, 4), other halogen substituents (5) and alkoxy groups (6–9) is also tolerated, even if not optimal. […] A SAR investigation was conducted with purchased and synthesized analogues of 1 through FRET-based potency measurements and DSF assay with TNKS2 ARC4 (Table 2, Table S2). All the compounds commercially acquired underwent quality control. […] Changes to the length of the aliphatic chain at R[3] greatly impacts both potency and protein stabilization. […] The diethylamino-based substituent at R[3] […] Compounds 25 and 26 further indicate that the presence of tertiary amine at R[3] is not necessary to achieve binding. […] 5 Figure S2. DSF assay results for validation of primary hits identified in the EU-OPENSCREEN Commercials Diversity Library. (A) and (B) show DSF assay validation measurements of TNKS2 ARC4 with primary hits from the Commercial Diversity Library. Compounds are tested at 100 μM. They are named after their EU-OPENSCREEN identity codes and the identities are available for consultation on ECBD. 1,2 (A) and (B) show results from two independent experiments. For each experiment, each compound was tested with a single measurement, while controls (TNKS2 ARC4 with 100 μM optimized peptide, TNKS2 ARC4 with 100 μM DMSO) are studied in at least four replicates and errors are shown. Moreover, stabilization over the control (TNKS2 ARC4 with DMSO) is indicated (ΔTm °C). […] It was not possible to measure the melting curve of TNKS2 ARC4 in presence of EOS21552, EOS54043, EOS54043.

Compound | IC50 (TNKS2 ARC4 [1]) [µM] | ΔTm ± SD (°C) (TNKS2 ARC4 [2]) | IC50 (TNKS2 ARC4 [1]; pH 7, 100 nM CFP-ARC, 200 nM YFP-peptide, TBM pocket) [µM]
CN(C)CCCN1C(=O)C(O)=C(C(=O)c2ccc3c(c2)OCCO3)C1c1cccc(O)c1 (stereo not drawn) [compound 16, 16] | 31 |  | 
CCCCOc1ccc(C2C(C(=O)c3ccc4c(c3)OCCO4)=C(O)C(=O)N2CCCN2CCOCC2)cc1 (stereo not drawn) [compound 9, 9] | 81 | 1.40 ± 0.18 | 
CCN(CC)CCCN1C(=O)C(O)=C(C(=O)c2ccc(OCc3ccc(C)cc3)cc2)C1c1ccc(O)cc1 (stereo not drawn) [compound 11, 11] | 552 | 0.07 ± 0.07 | 
CN(C)CCCN1C(=O)C(O)=C(C(=O)c2ccc3c(c2)OCCO3)C1c1cccc(O)c1 (stereo not drawn) [compound 16] |  | 2.96 ± 0.36 | 
CCN(CC)CCCN1C(=O)C(O)=C(C(=O)c2ccc(OC)c(OC)c2)C1c1ccccc1 (stereo not drawn) [S10] |  | -0.28 ± 0.35 | 
CN(C)CCN1C(=O)C(O)=C(C(=O)c2ccc3c(c2)OCCO3)C1c1cccc(O)c1 (stereo not drawn) [compound 17, 17] | 274 |  | 
CCN(CC)CCCN1C(=O)C(O)=C(C(=O)c2ccc3c(c2)OCCO3)C1c1ccc(N)cc1 (stereo not drawn) [S9] | 17 | 2.78 ± 0.18 | 
CN(C)CCN1C(=O)C(O)=C(C(=O)c2ccc3c(c2)OCCO3)C1c1cccc(O)c1 (stereo not drawn) [compound 17] |  | 0.98 ± 0.32 | 
CCN(CC)CCCN1C(=O)C(O)=C(C(=O)c2ccc(OC)c(OC)c2)C1c1ccc(O)cc1 (stereo not drawn) [S7] | > 1000 | 0.04 ± 0.03 | 
CCCCOc1ccc(C2C(C(=O)c3ccc4c(c3)OCCO4)=C(O)C(=O)N2CCCN(C)C)cc1 (stereo not drawn) [compound 8, 8] | 69 | 1.65 ± 0.24 | 
CCN(CC)CCCN1C(=O)C(O)=C(C(=O)c2ccc(OC)c(OC)c2)C1c1cccc(O)c1 (stereo not drawn) [S11] |  | 0.08 ± 0.40 | 
O=C(C1=C(O)C(=O)N(CCCN2CCOCC2)C1c1cccc(O)c1)c1ccc2c(c1)OCCO2 (stereo not drawn) [compound 18, 18] | 85 |  | 
CCN(CC)CCCN1C(=O)C(O)=C(C(=O)c2ccc3c(c2)OCCO3)C1c1ccc(F)cc1 (stereo not drawn) [compound 2, 2] | 32 | 2.38 ± 0.52 | 
CCN(CC)CCCN1C(=O)C(O)=C(C(=O)c2ccc3c(c2)OCCO3)C1c1cccc(OC)c1 (stereo not drawn) [compound 12, 12] | 11 | 4.03 ± 0.39 | 
CCN(CC)CCN1C(=O)C(O)=C(C(=O)c2ccc3c(c2)OCCO3)C1c1cccc(O)c1 (stereo not drawn) [compound 14, 14] | 139 | 1.40 ± 0.36 | 
CCN(CC)CCCN1C(=O)C(O)=C(C(=O)c2ccc3c(c2)CC(C)O3)C1c1ccc(O)cc1 (stereo not drawn) [compound 10, 10] | 31 | 2.67 ± 0.46 | 
CCN(CC)CCCCN1C(=O)C(O)=C(C(=O)c2ccc3c(c2)OCCO3)C1c1ccc(O)cc1 (stereo not drawn) [S12] | 74 | 1.97 ± 0.35 | 
Cc1ccc(C2C(C(=O)c3ccc4c(c3)OCCO4)=C(O)C(=O)N2CCCN(C)C)cc1 (stereo not drawn) [compound 3, 3] | 51 | 2.34 ± 0.30 | 
COCCCN1C(=O)C(O)=C(C(=O)c2ccc3c(c2)OCCO3)C1c1cccc(O)c1 (stereo not drawn) [compound 15, 15] | 368 | 0.78 ± 0.43 | 
COc1cccc(C2C(C(=O)c3ccc4c(c3)OCCO4)=C(O)C(=O)N2CCCNC(=N)N)c1 (stereo not drawn) [S4] | 142 | 1.10 ± 0.12 | 
COc1cccc(C2C(C(=O)c3ccc4c(c3)OCCO4)=C(O)C(=O)N2CCCN2CCNCC2)c1 (stereo not drawn) [S1] | 250 | 0.69 ± 0.30 | 
CN(C)CCCN1C(=O)C(O)=C(C(=O)c2ccc3c(c2)OCCO3)C1c1ccc(Br)cc1 (stereo not drawn) [compound 5, 5] | 70 | 1.49 ± 0.16 | 
CCN(CC)CCCN1C(=O)C(O)=C(C(=O)c2ccc3c(c2)OCCO3)C1c1cccc(O)c1 (stereo not drawn) [compound 13, 13] | 24 | 4.82 ± 0.49 | 
O=C(C1=C(O)C(=O)N(CCCN2CCOCC2)C1c1cccc(O)c1)c1ccc2c(c1)OCCO2 (stereo not drawn) [compound 18] |  | 2.25 ± 0.48 | 
CCN(CC)CCCN1C(=O)C(O)=C(C(=O)c2ccc3ccccc3c2)C1c1ccc(O)cc1 (stereo not drawn) [S6] | > 1000 | -0.06 ± 0.04 | 
CCOc1ccc(C2C(C(=O)c3ccc4c(c3)OCCO4)=C(O)C(=O)N2CCCN2CCOCC2)cc1 (stereo not drawn) [compound 7, 7] | 117 | 1.42 ± 0.16 | 

More lines, now with the values ahead:

IC50 (TNKS2 ARC4 [1]) [µM] | ΔTm ± SD (°C) (TNKS2 ARC4 [2]) | IC50 (TNKS2 ARC4 [1]; pH 7, 100 nM CFP-ARC, 200 nM YFP-peptide, TBM pocket) [µM] | Compound
78 |  |  | CCN(CC)CCCN1C(=O)C(O)=C(C(=O)c2ccc3c(c2)OCCO3)C1c1ccc(C)cc1 (stereo not drawn) [compound 20, 20]
 | 0.89 ± 0.33 |  | O=C(C1=C(O)C(=O)N(CCN2CCOCC2)C1c1ccccc1)c1ccc2c(c1)OCCO2 (stereo not drawn) [compound 23]
56 |  |  | CCN(CC)CCCN1C(=O)C(O)=C(C(=O)c2ccc3c(c2)OCCO3)C1c1ccncc1 (stereo not drawn) [compound 24, 24]
 | 1.80 ± 0.26 |  | O=C(C1=C(O)C(=O)N(CCc2ccccc2)C1c1ccc(O)cc1)c1ccc2c(c1)OCCO2 (stereo not drawn) [compound 25]
 |  | 411 | O=C(C1=C(O)C(=O)N(CCN2CCOCC2)C1c1ccccc1)c1ccc2c(c1)OCCO2 (stereo not drawn) [compound 23, 23]
325 |  |  | O=C(C1=C(O)C(=O)N(Cc2ccncc2)C1c1ccccc1)c1ccc2c(c1)OCCO2 (stereo not drawn) [compound 22, 22]
10 |  |  | CCN(CC)CCCN1C(=O)C(O)=C(C(=O)c2ccc3c(c2)OCCO3)C1c1ccc(N(C)C)cc1 (stereo not drawn) [compound 19, 19]
 | 3.43 ± 0.66 |  | CCN(CC)CCCN1C(=O)C(O)=C(C(=O)c2ccc3c(c2)OCCO3)C1c1ccc(C)cc1 (stereo not drawn) [compound 20]
36 |  |  | CCN(CC)CCCN1C(=O)C(O)=C(C(=O)c2ccc3c(c2)OCCO3)C1c1ccccc1 (stereo not drawn) [compound 21, 21]
 | 0.48 ± 0.27 |  | O=C(C1=C(O)C(=O)N(Cc2ccncc2)C1c1ccccc1)c1ccc2c(c1)OCCO2 (stereo not drawn) [compound 22]
56 |  |  | O=C(C1=C(O)C(=O)N(CCc2ccccc2)C1c1ccc(O)cc1)c1ccc2c(c1)OCCO2 (stereo not drawn) [compound 25, 25]
 | 2.75 ± 0.44 |  | CCN(CC)CCCN1C(=O)C(O)=C(C(=O)c2ccc3c(c2)OCCO3)C1c1ccncc1 (stereo not drawn) [compound 24]
 | 4.14 ± 0.12 |  | CCN(CC)CCCN1C(=O)C(O)=C(C(=O)c2ccc3c(c2)OCCO3)C1c1ccc(N(C)C)cc1 (stereo not drawn) [compound 19]
30 |  |  | O=C(C1=C(O)C(=O)N(Cc2ccccc2)C1c1ccc(O)cc1)c1ccc2c(c1)OCCO2 (stereo not drawn) [compound 26, 26]
 | 4.73 ± 0.29 |  | CCN(CC)CCCN1C(=O)C(O)=C(C(=O)c2ccc3c(c2)OCCO3)C1c1ccccc1 (stereo not drawn) [compound 21]
 | 0.76 ± 0.33 |  | O=C(C1=C(O)C(=O)N(Cc2ccccc2)C1c1ccc(O)cc1)c1ccc2c(c1)OCCO2 (stereo not drawn) [compound 26]
